# Assay results taken from patent US11479802B2, “Assays for screening activity of modulators of members of the hydroxy steroid (17-beta) dehydrogenase (HSD17B) family” (Regeneron Pharmaceuticals, Inc., priority 2017, dated 2022).
# Key:
# [1] = target: T1, recombinant HSD17B13 (E20-K300) (Homo sapiens, UniProt Q7Z5P4); test: Biochemical NADH-linked screen of bioactive lipids as substrates (Example 2); settings: 5 μM substrate, 100 μM NAD+, four hours at room temperature
# T1 construct: recombinant HSD17B13 (E20-K300)
# T1 sequence (Q7Z5P4 20-300): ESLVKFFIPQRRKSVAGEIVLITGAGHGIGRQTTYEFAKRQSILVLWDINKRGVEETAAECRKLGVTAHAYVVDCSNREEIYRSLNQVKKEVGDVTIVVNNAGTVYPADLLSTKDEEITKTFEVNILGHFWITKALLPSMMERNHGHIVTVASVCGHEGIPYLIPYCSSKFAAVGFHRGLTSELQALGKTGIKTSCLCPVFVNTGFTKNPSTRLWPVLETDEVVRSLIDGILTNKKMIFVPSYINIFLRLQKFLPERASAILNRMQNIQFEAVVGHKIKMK
# Experimental: The biochemical assay described in Example 1 was repeated using bioactive lipids as substrates. In brief, 5 μM of each substrate was incubated in 40 μL reactions containing 1 μg of recombinant HSD17B13 (E20-K300) or beta-2 microglobulin (as a negative control) and 100 μM NAD^+ in 0.2M Tris-HCl, pH 7.5. After four hours of incubation at room temperature, 10 μL of each reaction was mixed with 10 μL luciferase and read, after 40 minutes, on an Envision Plate Reader (Perkin Elmer).
# [2] = target: T2, human HSD17B13 (Homo sapiens, UniProt Q7Z5P4); test: Substrate screening of steroid and bioactive lipid libraries against purified recombinant HSD17B13 (NADH-linked luciferase assay); assay type: biochemical; settings: for HSD17B13 Enzymatic Activity Relative Light Units: 500 μM NAD+, 100 ng enzyme, 3 hours at 23° C.; for HSD17B13 Enzymatic Activity Percent Estradiol Control: normalized to 50 μM estradiol after subtraction of 5% DMSO
# T2 sequence (Q7Z5P4 20-300): T1 sequence (Q7Z5P4 20-300)
# Procedure, shortened: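 Substrates (bioactive lipids 5 μM, steroids 50 μM; 5% DMSO) tested with 500 μM NAD+ and 100 ng recombinant human HSD17B13 in 0.2 M Tris-HCl pH 7.5, 3 h, 23° C. Luminescent NADH detection followed 1 h later; RLU normalized to estradiol (50 μM, 100%) and DMSO (0%) controls.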
# [3] = target: T3, HSD17B1 (Homo sapiens, UniProt P14061); test: Steroid substrate panel against HSD17B family member B1; assay type: biochemical; settings: substrate at 50 μM; estradiol set as 100%
# T3 construct: made in house
# T3 sequence (P14061 1-328): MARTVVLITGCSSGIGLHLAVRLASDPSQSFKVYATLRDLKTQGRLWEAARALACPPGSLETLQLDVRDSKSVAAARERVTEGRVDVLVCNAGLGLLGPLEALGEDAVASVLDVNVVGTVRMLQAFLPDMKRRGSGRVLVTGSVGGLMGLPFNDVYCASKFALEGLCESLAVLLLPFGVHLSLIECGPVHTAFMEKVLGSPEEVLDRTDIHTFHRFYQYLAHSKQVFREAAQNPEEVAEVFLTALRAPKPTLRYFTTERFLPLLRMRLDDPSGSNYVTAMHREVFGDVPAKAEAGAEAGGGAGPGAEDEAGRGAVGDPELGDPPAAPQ
# Experimental: (§1) To understand the functional consequences of premature truncation of the HSD17B13 protein due to rs72613567:TA (the associated variant, rs72613567, is an insertion of an adenine adjacent to the donor splice site of exon six (TA allele)), the enzymatic activity of isoforms A and D was evaluated in vitro using recombinant protein and nicotinamide […] dinucleotide as cofactor. Reactions were performed in a final volume of 40 μl of assay buffer (0.2 M Tris-HCl, pH 7.5) which contained 500 μM NAD^+, 5 μM bioactive lipid or 50 μM steroid (all in a final concentration of 5% DMSO), and 100 ng of recombinant human HSD17B13. Reactions were incubated for 3 hours, at 23° C., after which an equal volume detection reagent was added. Following a 1 hour incubation at 23° C., the relative light units (RLUs) were measured on an Envision Plate Reader (Perkin Elmer). Raw RLU values were normalized as percent of control (50 μM estradiol) following subtraction of negative control (5% DMSO) using the following formula: Percent of control (POC)=100×(Sample (RLU)−Negative CTRLaverage)/(Positive CTRLaverage−Negative CTRLaverage).
# (§2) In order to determine specificity of compounds with inhibitory activity against HSD17B13, assays for selected members of the HSD17B family which includes HSD17B1-HSD17B14 were established. As a first step, selected family members were expressed, purified and tested for activity a using a steroid substrate panel. Substrates from the steroid panel were tested at 50 μM, using the standard assay protocol. Activity against the substrates for each HSD17B family member were normalized to Percent of Control (POC). The control, estradiol, was set as 100%.
# [4] = target: T4, HSD17B2 (Homo sapiens, UniProt P37059); test: Steroid substrate panel against HSD17B family member B2; assay type: biochemical; settings: substrate at 50 μM; estradiol set as 100%
# T4 construct: made in house
# T4 sequence (P37059 1-387): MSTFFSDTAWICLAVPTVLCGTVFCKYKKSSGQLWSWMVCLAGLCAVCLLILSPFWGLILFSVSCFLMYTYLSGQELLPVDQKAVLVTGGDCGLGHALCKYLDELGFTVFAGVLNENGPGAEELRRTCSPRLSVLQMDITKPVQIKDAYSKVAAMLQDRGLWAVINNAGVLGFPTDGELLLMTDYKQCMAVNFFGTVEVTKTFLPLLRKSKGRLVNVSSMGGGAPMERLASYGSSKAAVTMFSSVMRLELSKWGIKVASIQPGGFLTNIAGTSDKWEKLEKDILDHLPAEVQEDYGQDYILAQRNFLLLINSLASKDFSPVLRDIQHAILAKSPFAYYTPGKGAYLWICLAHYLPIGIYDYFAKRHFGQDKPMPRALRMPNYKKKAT
# Experimental: as §1, §2
# [5] = target: T5, HSD17B4 (Homo sapiens, UniProt P51659); test: Steroid substrate panel against HSD17B family member B4; assay type: biochemical; settings: substrate at 50 μM; estradiol set as 100%
# T5 construct: made in house
# T5 sequence (P51659 1-736): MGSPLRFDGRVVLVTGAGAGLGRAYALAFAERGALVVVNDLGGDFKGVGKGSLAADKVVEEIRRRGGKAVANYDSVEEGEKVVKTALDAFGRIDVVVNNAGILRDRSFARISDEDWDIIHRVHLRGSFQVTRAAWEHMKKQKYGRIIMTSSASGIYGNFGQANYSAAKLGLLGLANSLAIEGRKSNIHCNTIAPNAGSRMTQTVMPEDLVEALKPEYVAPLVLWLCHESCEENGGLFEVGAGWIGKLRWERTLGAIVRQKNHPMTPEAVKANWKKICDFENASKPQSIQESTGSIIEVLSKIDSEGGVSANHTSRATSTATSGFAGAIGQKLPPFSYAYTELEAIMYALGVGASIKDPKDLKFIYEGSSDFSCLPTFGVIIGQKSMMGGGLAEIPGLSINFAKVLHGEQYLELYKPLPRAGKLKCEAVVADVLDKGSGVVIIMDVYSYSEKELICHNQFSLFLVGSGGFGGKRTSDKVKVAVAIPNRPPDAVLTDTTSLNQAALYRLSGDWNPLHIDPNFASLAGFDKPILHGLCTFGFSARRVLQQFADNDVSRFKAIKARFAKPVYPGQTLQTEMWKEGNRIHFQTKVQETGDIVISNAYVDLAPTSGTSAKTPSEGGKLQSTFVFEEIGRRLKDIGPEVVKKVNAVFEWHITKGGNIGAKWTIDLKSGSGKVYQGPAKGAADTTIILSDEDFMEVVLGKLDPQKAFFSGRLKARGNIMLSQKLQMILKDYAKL
# Experimental: as §1, §2
# [6] = target: T6, HSD17B5 (Homo sapiens, UniProt P42330); test: Steroid substrate panel against HSD17B family member B5; assay type: biochemical; settings: substrate at 50 μM; estradiol set as 100%
# T6 construct: made in house
# T6 sequence (P42330 1-323): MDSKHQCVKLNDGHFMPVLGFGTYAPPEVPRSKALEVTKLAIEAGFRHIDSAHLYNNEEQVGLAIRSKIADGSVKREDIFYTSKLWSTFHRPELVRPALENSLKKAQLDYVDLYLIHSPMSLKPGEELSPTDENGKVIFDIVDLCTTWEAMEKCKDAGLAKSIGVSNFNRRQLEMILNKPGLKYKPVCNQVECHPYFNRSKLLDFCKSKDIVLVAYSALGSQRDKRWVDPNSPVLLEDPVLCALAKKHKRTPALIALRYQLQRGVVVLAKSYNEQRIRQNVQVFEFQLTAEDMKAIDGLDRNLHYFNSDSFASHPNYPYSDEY
# Experimental: as §1, §2
# [7] = target: T7, HSD17B10 (Homo sapiens, UniProt Q99714); test: Steroid substrate panel against HSD17B family member B10; assay type: biochemical; settings: substrate at 50 μM; estradiol set as 100%
# T7 construct: made in house
# T7 sequence (Q99714 1-261): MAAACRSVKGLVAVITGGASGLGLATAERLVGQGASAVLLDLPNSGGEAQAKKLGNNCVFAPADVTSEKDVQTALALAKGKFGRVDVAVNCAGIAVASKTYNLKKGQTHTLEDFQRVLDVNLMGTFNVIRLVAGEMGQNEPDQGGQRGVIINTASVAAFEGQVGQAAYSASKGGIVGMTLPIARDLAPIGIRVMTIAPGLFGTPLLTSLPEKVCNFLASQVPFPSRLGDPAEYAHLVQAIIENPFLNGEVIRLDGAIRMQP
# Experimental: as §1, §2
# [8] = target: T8, HSD17B11 (Homo sapiens, UniProt Q8NBQ5); test: Steroid substrate panel against HSD17B family member B11; assay type: biochemical; settings: substrate at 50 μM; estradiol set as 100%
# T8 construct: made in house
# T8 sequence (Q8NBQ5 20-300): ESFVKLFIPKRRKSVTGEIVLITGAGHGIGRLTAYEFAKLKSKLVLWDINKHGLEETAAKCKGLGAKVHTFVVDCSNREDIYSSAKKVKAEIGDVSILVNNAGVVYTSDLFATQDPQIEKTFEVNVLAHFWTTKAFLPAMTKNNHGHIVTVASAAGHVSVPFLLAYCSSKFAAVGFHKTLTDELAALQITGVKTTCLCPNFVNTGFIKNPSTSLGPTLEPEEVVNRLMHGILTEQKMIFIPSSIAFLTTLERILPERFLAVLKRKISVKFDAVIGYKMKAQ
# Experimental: as §1, §2
SMILES,substrate for HSD17B13 [1],"HSD17B13 Enzymatic Activity Relative Light Units ([2]; Steroid Library, 50 μM steroid)","HSD17B13 Enzymatic Activity Percent Estradiol Control ([2]; Steroid Library, 50 μM steroid)","Percent of Control (POC), B1 [3]","Percent of Control (POC), B2 [4]","Percent of Control (POC), B4 [5]","Percent of Control (POC), B5 [6]","Percent of Control (POC), B10 [7]","Percent of Control (POC), B11 [8]","HSD17B13 Enzymatic Activity Percent Estradiol Control ([2]; Bioactive Lipid Library, 5 μM bioactive lipid)","HSD17B13 Enzymatic Activity Percent Estradiol Control ([2]; Steroid Library, 50 μM steroid, listed as Beta-estradiol)","HSD17B13 Enzymatic Activity Percent Estradiol Control ([2]; Steroid Library, 50 μM steroid, listed as Estradiol Control)"
CCCCCC[C@@H](O)C/C=C\CCCCCCCC(=O)O [ricinoleic acid],identified as representative substrates,–,–,–,–,–,–,–,–,–,–,–
"C[C@]12CC[C@H](O)C[C@@H]1CC[C@@H]1[C@@H]2CC[C@]2(C)[C@@H](O)CC[C@@H]12 [5alpha-androstane-3beta,17beta-diol]",–,398600 RLU,4.16%,0.3%,42.5%,38.9%,0%,1.2%,0.0%,–,–,–
"C[C@]12CCC(=O)C[C@@H]1CC[C@@H]1[C@@H]2CC[C@]2(C)[C@@H](O)CC[C@@H]12 [DHT, dihydroxy testosterone (DHT)]",–,1886360 RLU,30.14%,0.4%,61.2%,37.1%,0%,3.3%,12.7%,–,–,–
C[C@]12CC[C@H]3[C@@H](CCC4=CC(=O)CC[C@@]43C)[C@@H]1CC[C@@H]2O [Testosterone],–,1125600 RLU,16.86%,1.1%,96.2%,84.6%,0%,4.0%,10.4%,–,–,–
C[C@]12CC[C@@H](O)C[C@@H]1CC[C@@H]1[C@@H]2CC[C@]2(C)C(=O)CC[C@@H]12 [Androsterone],–,158120 RLU,−0.04%,0.0%,1.0%,0.3%,0%,91.0%,0.0%,–,–,–
C[C@]12CC[C@@H](O)C[C@H]1CC[C@@H]1[C@@H]2C(=O)C[C@@]2(C)[C@H]1CC[C@]2(O)C(=O)CO [TetrahydroCortisone],–,232320 RLU,1.25%,0.0%,1.0%,0.5%,104%,52.2%,0.0%,–,–,–
C[C@]12CC[C@@H]3c4ccc(O)cc4CC[C@H]3[C@@H]1CC[C@@H]2O [Estradiol],–,–,85.76%,100%,100%,100%,100%,100%,100%,100.00%,72.17%,100.00%
C[C@H](O)[C@@]1(O)CC[C@H]2[C@@H]3CC[C@@H]4C[C@H](O)CC[C@]4(C)[C@H]3CC[C@@]21C [Pregnanetriol],–,163920 RLU,0.06%,−0.1%,6.1%,0.4%,48%,26.4%,26.1%,–,–,–
